In patent US6855687B2 (The Board of Regents The University of Texas System, priority 2000, dated 2005):
Where two headings read alike, the source gives them in different places.

Target: thrombin receptor
Assay: Specific binding of 125I thrombin to rat chondrocytes (Scatchard analysis)
Experimental: Primary cultures of rat articular chondrocytes were isolated and prepared for in vitro analysis using established methods (see Kuettner, K E., et.al., J. Cell Biology 93: 743-750, 1982). Briefly, cartilage pieces were dissected from the shoulder of rats and the pieces were digested with trypsin for one hour and with collagenase for three hours in tissue culture medium (DMEM) at 37 C. with stirring. The cells were plated in flasks at high density (50,000 cells/cm sq.) and were culture in DMEM containing antibiotics an ascorbic acid at 37° C. in an atmosphere of 5% CO2.

Kd (Scatchard analysis, 125I thrombin, three separate experiments, read-out: affinity of very high affinity binding sites): 0.1 nM
Kd (summary statement of Example 1, read-out: apparent affinity (3000 sites)): ~0.1 nM
Substance: thrombin
